# Laboratory results reported in patent publication EP0715850A1, “Use of proline and/or derivatives as an antihepatitis agent” (RESEARCH DEVELOPMENT CORPORATION OF JAPAN, priority 1994, dated 1996).
# Read-outs that look alike come from different tables or passages of the source.
# Experiments:
# [1] = tested on: rats suffering galactosamine induced fulminant hepatitis; conditions: ten days after galactosamine
# Procedure: Because of the similarity of pathological findings to those of human hepatitis and a large number of patients, experiments were carried out on the effect of administration of proline on the survival rate of rats suffering galactosamine induced fulminant hepatitis commonly used as a hepatitis model.
# Fisher strain rats (male; eight weeks of age; body weight: 160 to 190 g) were divided into four groups each comprising nine rats. Rats of three groups were administered with 30% galactosamine hydrochloride-saline through intraperitoneal administration (1.4 g/kg body weight) to form fulminant hepatitis models (GalN), and only saline was administered to the remaining group to form a control group.
# For 12 hours before and after administration of galactosamine, the rats were fasted, and from 12 hours prior to administration of galactosamine through six hours thereafter, the rats were caused to freely ingest 10% glucose aqueous solution.
# [2] = tested on: rats suffering galactosamine induced fulminant hepatitis; conditions: blood sampled 36 hours after galactosamine; Pre-Pro and Post-Pro groups, proline 2.0 g/kg oral
# Procedure: The effect of administration of proline on transamylase activity in blood of rats suffering galactosamine induced fulminant hepatitis was investigated.
# Blood was sampled from each of the four groups of rats (GalN, Control, Pre-Pro, and Post-Pro) of Example 1, upon the lapse of 36 hours after administration of galactosamine, and activity of transamylase in blood (glutamic-oxaloacetic acid transamylase: GOT; glutamic-pyruvic acid transamylase: GPT) was measured in accordance with the conventional method.
# [3] = tested on: LEC rat which spontaneously develops hepatitis, cirrhosis and hepatoma; test: death rate and jaundice of LEC rats that spontaneously develop hepatitis; format: in vivo
# Description: An effect of proline was investigated by using LEC rat which spontaneously develops hepatitis, cirrhosis and hepatoma.
# Weanlings of LEC rats (seven weeks of age: food deprived for one week before testing) were divided into 2 groups, and copper deficiency feed and normal feed were presented to the groups, respectively. The rats of 2 groups were further divided into 3 groups: group of free drinking of proline solution (0.2M of proline in distilled water); group of oral administration of proline solution (135-150 mg of proline/day); and group of free drinking of water. Death rate of 6 groups of rats were measured. A relationship between the amount of proline solution consumed by rats and the degree of jaundice of the rats was also measured.
structure (smiles),measurement,setting,value
"O=C(O)[C@@H]1CCCN1 [Proline, proline]",survival rate,"[1]; post-administration (Post-Pro) group: proline 2.0 g/kg oral at 6, 12 and 24 hours after galactosamine (1.4 g/kg i.p.), 7/9",78%
same,survival rate,"[1]; pre-administration (Pre-Pro) group: proline 2.0 g/kg oral one hour prior to and 12 and 24 hours after galactosamine (1.4 g/kg i.p.), 9/9",100%
same,increase in the concentration of GOT in blood,[2],largely inhibited
same,increase in the concentration of GPT in blood,[2],largely inhibited
same,degree of jaundice,"[3]; LEC rats ingesting proline solution, Fig. 3",diminished the jaundice
same,Death rate,"[3]; copper deficiency feed, free drinking of proline solution (0.2M in distilled water)",0%
same,Death rate,"[3]; copper deficiency feed, oral administration of proline solution (135-150 mg of proline/day)",0%
same,Death rate,"[3]; normal feed, free drinking of proline solution (0.2M in distilled water)",85%
same,Death rate,"[3]; normal feed, oral administration of proline solution (135-150 mg of proline/day)",57%
